# Experimental data taken from ChEMBL document CHEMBL3994648, “Design and synthesis of a novel series of 4-heteroarylamino-1'-azaspiro[oxazole-5,3'-bicyclo[2.2.2]octanes as α7 nicotinic receptor agonists 2. Development of 4-heteroaryl SAR” (Bioorg Med Chem Lett, 2017).
# Legend:
# [1] = Drug uptake in mouse brain at 0.3 mg/kg, po after 30 mins; type: ADME, organism-based; conditions: read-out: Drug uptake
# [2] = Plasma concentration in mouse at 0.3 mg/kg, po after 30 mins; type: ADME, organism-based
structure (smiles),measurement,setting,value
c1ccc(-c2cc(NC3=NC[C@@]4(CN5CCC4CC5)O3)ncn2)cc1,concentration at 0.5 h,[1],81 nM
same,concentration at 0.5 h,[2],273 nM
